Reference: the CheMixHub viscosity set

Assay: xn = mol fraction of the nth substance listed

ClC(Cl)Cl + CN(C)C=O
viscosity [mPa·s], 101 kPa
Details	293.15 K	303.15 K	313.15 K	323.15 K
x2 = 0.0512	0.7325	0.6616	0.6031	–
x2 = 0.1011	0.7913	0.7089	0.636	0.5823
x2 = 0.1954	0.9132	0.8102	–	0.6447
x2 = 0.1955	–	–	0.7206	–
x2 = 0.2975	1.025	0.901	0.7977	0.7077
x2 = 0.392	1.095	0.9598	0.8479	0.7408
x2 = 0.5008	1.128	0.9894	0.8735	0.7803
x2 = 0.5983	1.123	0.9851	0.8753	0.7856
x2 = 0.6918	1.091	0.9617	0.8556	0.7692
x2 = 0.7851	1.051	0.9294	0.8306	0.7493
x2 = 0.8951	0.9944	–	0.7921	0.7179
x2 = 0.8952	–	0.8835	–	–

ClC(Cl)Cl + CCO
Details	viscosity [mPa·s]
303 K, 101.3 kPa, x1 = 0.1074	0.9539
303 K, 101.3 kPa, x1 = 0.2992	0.8095
303 K, 101.3 kPa, x1 = 0.5029	0.6591
303 K, 101.3 kPa, x1 = 0.6978	0.5679
303 K, 101.3 kPa, x1 = 0.9003	0.5256
303.15 K, 101 kPa, x2 = 0.0811	0.514
303.15 K, 101 kPa, x2 = 0.1571	0.5247
303.15 K, 101 kPa, x2 = 0.2368	0.544
303.15 K, 101 kPa, x2 = 0.3342	0.5774
303.15 K, 101 kPa, x2 = 0.4545	0.6351
303.15 K, 101 kPa, x2 = 0.5514	0.697
303.15 K, 101 kPa, x2 = 0.6372	0.7617
303.15 K, 101 kPa, x2 = 0.7644	0.8683
303.15 K, 101 kPa, x2 = 0.7943	0.8927
303.15 K, 101 kPa, x2 = 0.8607	0.9412
303.15 K, 101 kPa, x2 = 0.9211	0.9752
303.15 K, 101.3 kPa, x2 = 0.186	0.514
303.15 K, 101.3 kPa, x2 = 0.3257	0.5247
303.15 K, 101.3 kPa, x2 = 0.4457	0.544
303.15 K, 101.3 kPa, x2 = 0.5653	0.5774
303.15 K, 101.3 kPa, x2 = 0.6834	0.6351
303.15 K, 101.3 kPa, x2 = 0.761	0.697
303.15 K, 101.3 kPa, x2 = 0.8198	0.7617
303.15 K, 101.3 kPa, x2 = 0.8937	0.8683
303.15 K, 101.3 kPa, x2 = 0.9091	0.8927
303.15 K, 101.3 kPa, x2 = 0.9412	0.9412
303.15 K, 101.3 kPa, x2 = 0.968	0.9752
311 K, 101.3 kPa, x1 = 0.1074	0.8217
311 K, 101.3 kPa, x1 = 0.2992	0.7021
311 K, 101.3 kPa, x1 = 0.5029	0.5849
311 K, 101.3 kPa, x1 = 0.6978	0.5169
311 K, 101.3 kPa, x1 = 0.9003	0.4864
319 K, 101.3 kPa, x1 = 0.1074	0.7107
319 K, 101.3 kPa, x1 = 0.2892	0.6097
319 K, 101.3 kPa, x1 = 0.5029	0.5234
319 K, 101.3 kPa, x1 = 0.6978	0.4922
319 K, 101.3 kPa, x1 = 0.9003	0.4517

CC(=O)OCc1ccccc1 + Cc1cccc(O)c1
313.15 K, 101.33 kPa
Details	viscosity [mPa·s]
x1 = 0.115	5.114
x1 = 0.272	3.917
x1 = 0.435	3.06
x1 = 0.62	2.337
x1 = 0.81	1.765

CCCCCCCCCCCCCCCC + CCCCCCC
Details	viscosity [mPa·s]
293.17 K, 101 kPa, x1 = 0.097	0.553
293.17 K, 101 kPa, x1 = 0.195	0.73
293.17 K, 101 kPa, x1 = 0.492	1.475
293.17 K, 101 kPa, x1 = 0.785	2.597
298 K, 101 kPa, x2 = 0.5	1.377
298.15 K, 101 kPa, x1 = 0.211	0.7064
298.15 K, 101 kPa, x1 = 0.4067	1.102
298.15 K, 101 kPa, x1 = 0.5795	1.552
298.15 K, 101 kPa, x1 = 0.7867	2.202
298.15 K, 101.33 kPa, x2 = 0.1067	2.618
298.15 K, 101.33 kPa, x2 = 0.1981	2.268
298.15 K, 101.33 kPa, x2 = 0.3001	1.922
298.15 K, 101.33 kPa, x2 = 0.4055	1.603
298.15 K, 101.33 kPa, x2 = 0.5077	1.307
298.15 K, 101.33 kPa, x2 = 0.607	1.08
298.15 K, 101.33 kPa, x2 = 0.7086	0.8554
298.15 K, 101.33 kPa, x2 = 0.8028	0.68
298.15 K, 101.33 kPa, x2 = 0.9019	0.5217
303.15 K, 101 kPa, x1 = 0.097	0.485
303.15 K, 101 kPa, x1 = 0.195	0.632
303.15 K, 101 kPa, x1 = 0.492	1.233
303.15 K, 101 kPa, x1 = 0.785	2.079
318 K, 101 kPa, x2 = 0.5	1.005

CCCCCCCCCCCCCCCC + CC(C)CC(C)(C)C
298.15 K
Details	viscosity [mPa·s]
101 kPa, x2 = 0.05562	2.82
101 kPa, x2 = 0.1311	2.55
101 kPa, x2 = 0.1971	2.371
101 kPa, x2 = 0.307	1.95
101 kPa, x2 = 0.4264	1.651
101 kPa, x2 = 0.5472	1.337
101 kPa, x2 = 0.6552	1.077
101 kPa, x2 = 0.7341	0.9214
101 kPa, x2 = 0.8043	0.7819
101 kPa, x2 = 0.8275	0.7495
101 kPa, x2 = 0.8768	0.6682
101 kPa, x2 = 0.929	0.5871
101 kPa, x2 = 0.9511	0.5441
101.33 kPa, x1 = 0.101	0.6392
101.33 kPa, x1 = 0.199	0.8143
101.33 kPa, x1 = 0.2987	1.014
101.33 kPa, x1 = 0.4006	1.24
101.33 kPa, x1 = 0.4999	1.489
101.33 kPa, x1 = 0.6004	1.765
101.33 kPa, x1 = 0.7002	2.062
101.33 kPa, x1 = 0.8003	2.391
101.33 kPa, x1 = 0.9001	2.72

CCCCCCCCCCCCCCCC + C1CCCCC1
viscosity [mPa·s]
Details	298.15 K	323.15 K
100 kPa, x2 = 0.2	2.654	1.632
100 kPa, x2 = 0.4	2.239	1.399
100 kPa, x2 = 0.6	1.79	1.154
100 kPa, x2 = 0.8	1.326	0.8848
101.33 kPa, x1 = 0.0129	0.9348	–
101.33 kPa, x2 = 0.1809	2.717	–
101.33 kPa, x2 = 0.3339	2.395	–
101.33 kPa, x2 = 0.458	2.126	–
101.33 kPa, x2 = 0.557	1.892	–
101.33 kPa, x2 = 0.6415	1.709	–
101.33 kPa, x2 = 0.7087	1.549	–
101.33 kPa, x2 = 0.7738	1.39	–
101.33 kPa, x2 = 0.828	1.27	–
101.33 kPa, x2 = 0.8753	1.169	–
101.33 kPa, x2 = 0.9197	1.08	–
101.33 kPa, x2 = 0.9513	1.008	–

CC(=O)OCc1ccccc1 + Cc1ccccc1C
viscosity [mPa·s], 101 kPa
Details	x1 = 0.0897	x1 = 0.1695	x1 = 0.2706	x1 = 0.3684	x1 = 0.4671	x1 = 0.562	x1 = 0.6623	x1 = 0.7598	x1 = 0.8617	x1 = 0.9299
303.15 K	0.751	0.802	0.873	0.957	1.047	1.142	1.252	1.361	1.478	1.563
313.15 K	0.671	0.72	0.783	0.845	0.909	0.976	1.054	1.135	1.224	1.285

CCCCCCCCCCCCCCCC + CCCCCCCCCC
Details	viscosity [mPa·s]
298.15 K, 101.33 kPa, x2 = 0.1051	2.749
298.15 K, 101.33 kPa, x2 = 0.2075	2.481
298.15 K, 101.33 kPa, x2 = 0.3045	2.2
298.15 K, 101.33 kPa, x2 = 0.4045	1.976
298.15 K, 101.33 kPa, x2 = 0.5081	1.733
298.15 K, 101.33 kPa, x2 = 0.6095	1.53
298.15 K, 101.33 kPa, x2 = 0.7051	1.336
298.15 K, 101.33 kPa, x2 = 0.8037	1.17
298.15 K, 101.33 kPa, x2 = 0.9041	0.9885
313.15 K, 100 kPa, x2 = 0.35	1.6
313.15 K, 100 kPa, x2 = 0.61	1.18
313.15 K, 100 kPa, x2 = 0.83	0.9

ClC(Cl)Cl + C1CCCCC1
298.15 K, 101 kPa
Details	viscosity [mPa·s]
x1 = 0.2026	0.7795
x1 = 0.3543	0.6917
x1 = 0.4317	0.665
x1 = 0.5593	0.6217
x1 = 0.6464	0.6057
x1 = 0.7738	0.5875
x1 = 0.886	0.5657

O=CC(Cl)(Cl)Cl + CCC(C)=O
viscosity [mPa·s], 101 kPa
Details	x1 = 0.1183	x1 = 0.2018	x1 = 0.3006	x1 = 0.3959	x1 = 0.5007	x1 = 0.5979	x1 = 0.6814	x1 = 0.7599	x1 = 0.847
298.15 K	0.5125	0.5629	0.6247	0.6758	0.7457	0.8097	0.8541	0.8952	0.9503
323.15 K	0.3989	0.4323	0.4784	0.5132	0.5619	0.6053	0.6241	0.6588	0.7035

ClC(Cl)Cl + C1COCCO1
Details	viscosity [mPa·s]
293.15 K, 101.33 kPa, x1 = 0.152	1.199
293.15 K, 101.33 kPa, x1 = 0.2726	1.129
293.15 K, 101.33 kPa, x1 = 0.3876	1.063
293.15 K, 101.33 kPa, x1 = 0.4413	1.035
293.15 K, 101.33 kPa, x1 = 0.516	0.992
293.15 K, 101.33 kPa, x1 = 0.6385	0.919
293.15 K, 101.33 kPa, x1 = 0.7409	0.819
293.15 K, 101.33 kPa, x1 = 0.8856	0.677
298.15 K, 101 kPa, x1 = 0.2	1.08
298.15 K, 101 kPa, x1 = 0.4	0.981
298.15 K, 101 kPa, x1 = 0.6	0.865
298.15 K, 101 kPa, x1 = 0.8	0.703
298.15 K, 101.33 kPa, x1 = 0.152	1.073
298.15 K, 101.33 kPa, x1 = 0.2726	1.018
298.15 K, 101.33 kPa, x1 = 0.3876	0.964
298.15 K, 101.33 kPa, x1 = 0.4413	0.952
298.15 K, 101.33 kPa, x1 = 0.516	0.905
298.15 K, 101.33 kPa, x1 = 0.6385	0.837
298.15 K, 101.33 kPa, x1 = 0.7409	0.774
298.15 K, 101.33 kPa, x1 = 0.8856	0.658
303.15 K, 101 kPa, x2 = 0.0995	0.59
303.15 K, 101 kPa, x2 = 0.1981	0.672
303.15 K, 101 kPa, x2 = 0.2998	0.75
303.15 K, 101 kPa, x2 = 0.3953	0.801
303.15 K, 101 kPa, x2 = 0.4992	0.857
303.15 K, 101 kPa, x2 = 0.5971	0.91
303.15 K, 101 kPa, x2 = 0.6993	0.956
303.15 K, 101 kPa, x2 = 0.8015	0.997
303.15 K, 101 kPa, x2 = 0.9021	1.044
303.15 K, 101.33 kPa, x1 = 0.2137	1.007
303.15 K, 101.33 kPa, x1 = 0.3447	0.949
303.15 K, 101.33 kPa, x1 = 0.4212	0.934
303.15 K, 101.33 kPa, x1 = 0.4813	0.886
303.15 K, 101.33 kPa, x1 = 0.5194	0.879
303.15 K, 101.33 kPa, x1 = 0.5698	0.844
303.15 K, 101.33 kPa, x1 = 0.7088	0.752
